Tests used:
PRMT5 [1] = target: T1, PRMT5 (Homo sapiens, UniProt O14744); test: PRMT5 IC50 assay in the presence of SAM as cofactor; format: biochemical
T1 construct: purchased Viva (custom protein)
Method in brief: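 Three cofactor conditions are run: SAM-bound, MTA-bound and cofactor-free enzyme. IC50 is read from each; for the SAM and MTA arms it is divided by 1.5 and 13.5 respectively to give Ki.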

PRMT5 [2] = target: T1, PRMT5; test: PRMT5 IC50 assay with no cofactor; format: biochemical
Method in brief: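 Human PRMT5 inhibition, IC50 in μM; cofactor varied (SAM / MTA / none).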

PRMT5 [3] = target: T1, PRMT5; test: PRMT5 IC50 assay in the presence of MTA as cofactor; format: biochemical; details: for IC50: PRMT5, MTA as cofactor
Method in brief: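 MTA-dependent versus SAM-dependent inhibition of human PRMT5 was assessed by IC50; conversion factors of 13.5 and 1.5 gave the corresponding Ki.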

HAP1 MTAP-intact = test: SDMA in-cell western assay, HAP1 MTAP-intact cell line; format: cell-based; details: Homo sapiens
Method in brief: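 Using an MTAP-isogenic HAP1 cell pair, inhibition of SDMA formation is read by in-cell western and expressed as IC50. MTAP-selectivity is assigned where the ratio between lines reaches 3 fold or greater.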

HAP1 MTAP-deleted = test: SDMA in-cell western assay, HAP1 MTAP-deleted cell line; format: cell-based; details: for IC50: Homo sapiens, HAP1 MTAP-deleted cell line; for MTAP Intact/Deleted Ratio: IC50 ratio HAP1 MTAP-intact / HAP1 MTAP-deleted
Method in brief: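 In-cell western for SDMA marks; MTAP-deleted (null) HAP1 background; values given as IC50.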

[4] = ratio between the Ki in the presence of SAM and the Ki in the presence of MTA
[5] = ratio between Ki in the presence of SAM and Ki in the presence of MTA

T1 sequence (O14744 whole entry): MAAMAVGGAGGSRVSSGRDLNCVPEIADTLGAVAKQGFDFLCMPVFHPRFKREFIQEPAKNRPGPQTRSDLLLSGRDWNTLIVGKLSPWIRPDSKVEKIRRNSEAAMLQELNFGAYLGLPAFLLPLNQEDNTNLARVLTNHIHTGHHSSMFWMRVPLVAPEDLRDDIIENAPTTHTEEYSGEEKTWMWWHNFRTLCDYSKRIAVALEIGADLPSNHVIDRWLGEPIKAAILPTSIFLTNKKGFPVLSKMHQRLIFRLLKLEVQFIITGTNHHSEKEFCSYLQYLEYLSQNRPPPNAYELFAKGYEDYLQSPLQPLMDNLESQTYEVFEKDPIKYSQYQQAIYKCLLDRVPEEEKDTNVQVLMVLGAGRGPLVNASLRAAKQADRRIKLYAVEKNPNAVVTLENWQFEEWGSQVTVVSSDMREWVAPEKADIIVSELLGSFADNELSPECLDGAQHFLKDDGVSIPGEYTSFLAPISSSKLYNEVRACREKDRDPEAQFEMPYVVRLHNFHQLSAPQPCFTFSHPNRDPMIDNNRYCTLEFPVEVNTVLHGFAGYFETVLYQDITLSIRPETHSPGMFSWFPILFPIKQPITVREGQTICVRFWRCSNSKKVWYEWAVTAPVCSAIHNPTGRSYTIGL
T1 sequence (Q9BQA1 whole entry partner): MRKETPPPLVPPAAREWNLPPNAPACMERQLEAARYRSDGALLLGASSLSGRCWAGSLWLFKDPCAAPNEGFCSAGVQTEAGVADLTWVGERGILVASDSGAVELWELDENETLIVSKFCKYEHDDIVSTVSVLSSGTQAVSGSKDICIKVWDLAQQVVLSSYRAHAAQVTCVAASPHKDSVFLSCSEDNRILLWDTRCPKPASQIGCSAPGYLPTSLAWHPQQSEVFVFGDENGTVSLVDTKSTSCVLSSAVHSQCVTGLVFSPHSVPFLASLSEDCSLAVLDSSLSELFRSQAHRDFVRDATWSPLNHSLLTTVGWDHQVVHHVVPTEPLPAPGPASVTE

| SMILES | IC50 (PRMT5 [1]) [µM] | IC50 (PRMT5 [2]) [µM] | IC50 (PRMT5 [3]) [µM] | SAM/MTA Ratio (PRMT5 [3]; [4]) | IC50 (HAP1 MTAP-intact) [µM] | IC50 (HAP1 MTAP-deleted) [µM] | MTAP Intact/Deleted Ratio (HAP1 MTAP-deleted) | IC50 (PRMT5 [2]; read-out: No Co-factor IC50) [µM] | SAM/MTA Ratio (PRMT5 [3]; [5]) |
| --- | --- | --- | --- | --- | --- | --- | --- | --- | --- |
| Cc1ncoc1COc1ccc2c(c1C)CCN(C[C@@H](O)CNC(=O)c1cc(NC3COC3)nc(N3CCN(C(C)(C)C)CC3)n1)C2 [Compound 435, 2-(4-tert-butylpiperazin-1-yl)-N-[(2S)-2-hydroxy-3-{5-methyl-6-[(4-methyl-1,3-oxazol-5-yl)methoxy]-1,2,3,4-tetrahydroisoquinolin-2-yl}propyl]-6-[(oxetan-3-yl)amino]pyrimidine-4-carboxamide] | 0.05 to 0.5 | ≥ 5 | 0.05 to 0.5 | A (a Ki ratio greater than or equal to 10 fold between the Ki in the presence of SAM and the Ki in the presence of MTA) | ≥ 10 | ≥ 10 | C* (an IC50 ratio of less than 3 fold between the IC50 in the HAP1 MTAP-intact cell line and the HAP1 MTAP-deleted cell line) |  |  |
| CCC(=O)N1CCC(Nc2cc(C(=O)NC[C@H](O)CN3CCc4c(ccc(OCc5cnco5)c4C)C3)ccn2)CC1 [Compound 496, (S)—N-(2-hydroxy-3-(5-methyl-6-(oxazol-5-ylmethoxy)-3N-dihydroisoquinolin-2(1H)-yl)propyl)-2-((1-propionylpiperidin-4-yl)amino)isonicotinamide] | 0.05 to 0.5 | 0.5 to 5 | 0.05 to 0.5 | A (a Ki ratio greater than or equal to 10 fold between the Ki in the presence of SAM and the Ki in the presence of MTA) | ≥ 10 | 1 to 10 | B* (an IC50 ratio greater than or equal to 3 fold but lower than 10 fold between the IC50 in the HAP1 MTAP-intact cell line and the HAP1 MTAP-deleted cell line) |  |  |
| Cc1c(OCc2cnco2)ccc2c1CCN(C[C@@H](O)CNC(=O)c1ccnc(NC3CCN(C(=O)C(C)C)CC3)c1)C2 [Compound 427] | 0.05 to 0.5 | 0.5 to 5 | 0.05 to 0.5 | A (a Ki ratio greater than or equal to 10 fold between the Ki in the presence of SAM and the Ki in the presence of MTA) | ≥ 10 | 1 to 10 | B* (an IC50 ratio greater than or equal to 3 fold but lower than 10 fold between the IC50 in the HAP1 MTAP-intact cell line and the HAP1 MTAP-deleted cell line) |  |  |
| Cc1ncoc1COc1ccc2c(c1Br)CCN(C[C@@H](O)CNC(=O)c1cccc(NC3COC3)c1)C2 [Compound 381, (S)—N-(3-(5-bromo-6-((4-methyloxazol-5-yl)methoxy)-3,4-dihydroisoquinolin-2(1H)-yl)-2-hydroxypropyl)-3-(oxetan-3-ylamino)benzamide] | 0.5 to 5 |  | 0.5 to 5 |  | ≥ 10 | ≥ 10 | C* (an IC50 ratio of less than 3 fold between the IC50 in the HAP1 MTAP-intact cell line and the HAP1 MTAP-deleted cell line) | ≥ 5 | A (a Ki ratio greater than or equal to 10 fold between the Ki in the presence of SAM and the Ki in the presence of MTA) |
| CC(=O)N1CCC(Nc2cc(C(=O)NC[C@H](O)CN3CCc4c(ccc(OCc5cnco5)c4Cl)C3)ncn2)CC1 [Compound 241, (S)-6-((1-acetylpiperidin-4-yl)amino)-N-(3-(5-chloro-6-(oxazol-5-ylmethoxy)-3,4-dihydroisoquinolin-2(1H)-yl)-2-hydroxypropyl)pyrimidine-4-carboxamide] | 0.05 to 0.5 |  | 0.05 to 0.5 |  | ≥ 10 | 1 to 10 | C* (an IC50 ratio of less than 3 fold between the IC50 in the HAP1 MTAP-intact cell line and the HAP1 MTAP-deleted cell line) | 0.5 to 5 | A (a Ki ratio greater than or equal to 10 fold between the Ki in the presence of SAM and the Ki in the presence of MTA) |
| CC(=O)N1CC(Nc2cc(C(=O)NC[C@H](O)CN3CCc4c(ccc(OCc5cnco5)c4Cl)C3)ccn2)C1 [Compound 380, (S)-2-((1-acetylazetidin-3-yl)amino)-N-(3-(5-chloro-6-(oxazol-5-ylmethoxy)-3,4-dihydroisoquinolin-2(1H)-yl)-2-hydroxypropyl)isonicotinamide] | 0.05 to 0.5 |  | 0.05 to 0.5 |  | ≥ 10 | ≥ 10 | C* (an IC50 ratio of less than 3 fold between the IC50 in the HAP1 MTAP-intact cell line and the HAP1 MTAP-deleted cell line) | 0.5 to 5 | A (a Ki ratio greater than or equal to 10 fold between the Ki in the presence of SAM and the Ki in the presence of MTA) |
| Cc1ncoc1COc1ccc2c(c1)CCN(C[C@@H](O)CNC(=O)c1cc(NC3COC3)nc(N3CCN(C(C)C)CC3)n1)C2 [Compound 492, N-[(2S)-2-hydroxy-3-{6-[(4-methyl-1,3-oxazol-5-yl)methoxy]-1,2,3,4-tetrahydroisoquinolin-2-yl}propyl]-6-[(oxetan-3-yl)amino]-2-[4-(propan-2-yl)piperazin-1-yl]pyrimidine-4-carboxamide] | 0.05 to 0.5 | ≥ 5 | 0.05 to 0.5 | A (a Ki ratio greater than or equal to 10 fold between the Ki in the presence of SAM and the Ki in the presence of MTA) | 1 to 10 | 1 to 10 | C* (an IC50 ratio of less than 3 fold between the IC50 in the HAP1 MTAP-intact cell line and the HAP1 MTAP-deleted cell line) |  |  |
| CCCC(=O)N1CCC(Nc2cc(C(=O)NC[C@H](O)CN3CCc4cc(OCc5cnco5)ccc4C3)ccn2)CC1 [Compound 431, 2-[(1-butanoyl-4-piperidyl)amino]-N-[(2S)-2-hydroxy-3-[6-(oxazol-5-ylmethoxy)-3,4-dihydro-1H-isoquinolin-2-yl]propyl]pyridine-4-carboxamide] | 0.05 to 0.5 | 0.5 to 5 | 0.05 to 0.5 | A (a Ki ratio greater than or equal to 10 fold between the Ki in the presence of SAM and the Ki in the presence of MTA) | 1 to 10 | < 1 | B* (an IC50 ratio greater than or equal to 3 fold but lower than 10 fold between the IC50 in the HAP1 MTAP-intact cell line and the HAP1 MTAP-deleted cell line) |  |  |
| CC(=O)N1CCC(Nc2cc(C(=O)NC[C@H](O)CN3CCc4c(ccc(OCc5cn[nH]c5)c4C)C3)ncn2)CC1 [Compound 253, 6-[(1-acetyl-4-piperidyl)amino]-N-[(2S)-2-hydroxy-3-[5-methyl-6-(1H-pyrazol-4-ylmethoxy)-3,4-dihydro-1H-isoquinolin-2-yl]propyl]pyrimidine-4-carboxamide] | 0.5 to 5 |  | 0.05 to 0.5 |  | 1 to 10 | 1 to 10 | C* (an IC50 ratio of less than 3 fold between the IC50 in the HAP1 MTAP-intact cell line and the HAP1 MTAP-deleted cell line) | 0.5 to 5 | A (a Ki ratio greater than or equal to 10 fold between the Ki in the presence of SAM and the Ki in the presence of MTA) |
| CC(=O)N1CC(Nc2cc(C(=O)NC[C@H](O)CN3CCc4cc(OCc5cnco5)ccc4C3)nc(C(C)(C)C)n2)C1 [Compound 379, (S)-6-((1-acetylazetidin-3-yl)amino)-2-(tert-butyl)-N-(2-hydroxy-3-(6-(oxazol-5-ylmethoxy)-3,4-dihydroisoquinolin-2(1H)-yl)propyl)pyrimidine-4-carboxamide] | 0.05 to 0.5 |  | 0.05 to 0.5 |  | < 1 | < 1 | C* (an IC50 ratio of less than 3 fold between the IC50 in the HAP1 MTAP-intact cell line and the HAP1 MTAP-deleted cell line) | 0.5 to 5 | A (a Ki ratio greater than or equal to 10 fold between the Ki in the presence of SAM and the Ki in the presence of MTA) |
